Reference: US12338203B2 (TAISHO PHARMACEUTICAL CO., LTD., priority 2019, dated 2025)
Where two headings read alike, the source gives them in different places.

Target: T1, human LPAR1 (Homo sapiens, UniProt Q92633)
T1 construct: expressed in transfected cells
Test: Test Example 1: antagonism against response of LPA-induced increase in intracellular Ca2+ concentration in RH7777 cells stably expressing human LPAR1
Assay type: cell-based
Description: (1) Preparation of RH7777 cells stably expressing human LPAR1
The human LPAR1 expression vector was transfected into RH7777 cells to acquire human LPAR1 expressing cells.
(2) Test of antagonism against response of LPA-induced increase in intracellular Ca^2+ concentration
Cells stably expressing human LPAR1 were used for a test of antagonism against response of LPA-induced increase in intracellular Ca^2+ concentration.
The cells were seeded onto the Poly-D-Lysine 96 well black plate and incubated overnight. […] 50 μL of the Basal Buffer (1×HBSS, 20 mM HEPES, 2.5 mM Probenecid, 0.05% BSA, 0.25 mg/mL Amaranth, pH 7.4) containing the test compound was added thereto, followed by incubation at 37° C. for 30 minutes. In FDSS6000 (Hamamatsu Photonics K.K.), LPAs were added, and the change in intracellular Ca^2+ concentration was detected using the fluorescence value of a wavelength of 540 nm by an excitation wavelength of 480 nm as an indicator. […] The Rmax under […] without the test compound was used as the control value. The Rmax under Basal Buffer stimulation with no LPAs or test compounds was used as the basal value.
The percentage (%) of increase in intracellular Ca^2+ concentration was calculated by dividing the value obtained by subtracting the basal value from Rmax in the presence of LPAs and each concentration of the test compound by the value obtained by subtracting the basal value from the control value. The concentration of each test compound was plotted on the X axis and the percentage (%) of increase in intracellular Ca^2+ concentration was plotted on the Y axis, and the IC50 value was calculated by nonlinear regression using XLfit.

[1] = RH7777 cells stably expressing human LPAR1, Fluo-4 fluorescence, FDSS6000, read-out: IC50 value (concentration producing 50% antagonism against response of LPA-induced increase in intracellular Ca2+ concentration) (converted)

T1 sequence (Q92633 whole entry): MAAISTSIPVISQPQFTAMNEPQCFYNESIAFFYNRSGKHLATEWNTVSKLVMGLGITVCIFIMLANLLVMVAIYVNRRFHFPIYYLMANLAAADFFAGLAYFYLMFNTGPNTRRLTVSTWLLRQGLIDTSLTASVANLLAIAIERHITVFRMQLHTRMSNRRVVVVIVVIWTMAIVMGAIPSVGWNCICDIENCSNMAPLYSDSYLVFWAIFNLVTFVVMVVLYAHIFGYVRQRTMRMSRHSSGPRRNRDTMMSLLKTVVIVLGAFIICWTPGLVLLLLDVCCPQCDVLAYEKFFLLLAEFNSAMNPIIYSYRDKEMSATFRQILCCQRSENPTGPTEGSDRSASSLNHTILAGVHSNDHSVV

SMILES | IC50 [1] [nM] | IC50 [nM]
CCOc1cc([C@@H](C)N(CCCCc2ccccc2)C(=O)NC(C(=O)O)C(C)O)cc(OCC)c1C (stereo partly shown) [Example 1-11] | 352 | –
CCOc1cc(C(C)N(CCCCc2ccccc2)C(=O)NC(CC(=O)O)C(=O)O)cc(OCC)c1C (stereo not shown) [Example 1-12] | 3600 | –
CCOc1cc([C@@H](C)N(CCCCc2ccccc2)C(=O)NC(C)(C)C(=O)O)cc(OCC)c1C [Example 1-13] | 20.4 | –
COc1cc(CN(CCCCc2ccccc2)C(=O)NCC(C(=O)O)C(C)C)cc(OC)c1C (stereo not shown) [Example 1-14] | 5690 | –
CCOc1cc([C@@H](C)N(CCCCc2ccccc2)C(=O)NCCCC(=O)O)cc(OCC)c1C [Example 1-15] | 280 | –
CCOc1cc([C@@H](C)N(CCCCc2ccccc2)C(=O)NC2(C(=O)O)CC2)cc(OCC)c1C(C)=O [Example 1-16, 1-({[(1R)-1-(4-Acetyl-3,5-Diethoxyphenyl)Ethyl](4-Phenylbutyl) Carbamoyl}Amino)Cyclopropane-1-Carboxylic Acid] | 2.23 | –
CCOc1cc([C@@H](C)N(CCCCc2ccccc2)C(=O)NC2(C(=O)O)CC2)cc(OCC)c1C [Example 1-17] | 23.7 | –
CCOc1cc([C@@H](C)N(CCCCc2ccccc2)C(=O)NC2(C(=O)O)CC2)cc(OCC)c1C1CC1 [Example 1-18] | 1.09 | –
CCOc1c(C(C)=O)ccc([C@@H](C)N(CCCCc2ccccc2)C(=O)NC2(C(=O)O)CC2)c1C [Example 1-19] | 4.1 | –
CCOc1cc([C@@H](C)N(CCCCc2ccccc2)C(=O)NC2(C(=O)O)CCC2)cc(OCC)c1C(C)=O [Example 1-20] | 0.621 | –
COc1cc(C(C)N(CCCCc2ccccc2)C(=O)NC2(C(=O)O)CCC2)cc(OC)c1C (stereo not shown) [Example 1-23] | 13 | –
CCOc1cc([C@@H](C)N(CCCCc2ccccc2)C(=O)NC2(C(=O)O)CCC2)cc(OCC)c1C [Example 1-24] | 3.54 | –
CCOc1cc(C(C)N(CCCCc2ccccc2)C(=O)NC2(C(=O)O)CC(F)(F)C2)cc(OCC)c1C1CC1 (stereo not shown) [Example 1-25] | 2.71 | –
CCOc1cc(C(C)N(CCCCc2ccccc2)C(=O)NC2(C(=O)O)CC(F)(F)C2)cc(OCC)c1C(C)=O (stereo not shown) [Example 1-29] | 3.12 | –
CCOc1cc([C@@H](C)N(CCCCc2ccccc2)C(=O)NC2(C(=O)O)CC(F)(F)C2)cc(OCC)c1C(C)=O [Example 1-30, 1-({[(1R)-1-(4-Acetyl-3,5-Diethoxyphenyl)Ethyl](4-Phenylbutyl) Carbamoyl}Amino)-3,3-Difluorocyclobutane-1-Carboxylic Acid] | 1.75 | –
CCOc1cc([C@H](C)N(CCCCc2ccccc2)C(=O)NC2(C(=O)O)CC(F)(F)C2)cc(OCC)c1C(C)=O [Example 1-31, 1-({[(1S)-1-(4-Acetyl-3,5-Diethoxyphenyl)Ethyl](4-Phenylbutyl) Carbamoyl}Amino)-3,3-Difluorocyclobutane-1-Carboxylic Acid] | 177 | –
CCOc1cc(C(C)N(CCCCc2ccccc2)C(=O)NC2(C(=O)O)CC(F)(F)C2)cc(OCC)c1C(C)(C)O (stereo not shown) [Example 1-32] | 8.93 | –
CCOc1cc(C(C)N(CCCCc2ccccc2)C(=O)NC2(C(=O)O)CC(F)(F)C2)cc(OCC)c1C(O)CC (stereo not shown) [Example 1-33] | 7.13 | –
CCOc1cc(C(C)N(CCCCc2ccccc2)C(=O)NC2(C(=O)O)CC(F)(F)C2)cc(OCC)c1C(C)O (stereo not shown) [Example 1-34] | 1.99 | –
CCOc1cc(C(C)N(CCCCc2ccccc2)C(=O)NC2(C(=O)O)CC(F)(F)C2)cc(OCC)c1C1(O)CC1 (stereo not shown) [Example 1-37] | 3.45 | –
CCOc1cc(C(C)N(CCCCc2ccccc2)C(=O)NC2(C(=O)O)CC(F)(F)C2)cc(OCC)c1C1(O)CC1 (stereo not shown) [Example 1-38] | 5.4 | –
CCOc1cc(C(C)N(CCCCc2ccccc2)C(=O)NC2(C(=O)O)CC(F)(F)C2)cc(OCC)c1C(=O)O (stereo not shown) [Example 1-39] | 5640 | –
CCOc1cc(C(C)N(CCCCc2ccccc2)C(=O)NC2(C(=O)O)CC(F)(F)C2)cc(OCC)c1C(N)=O (stereo not shown) [Example 1-40, 1-({[1-(4-Carbamoyl-3,5-Diethoxyphenyl)Ethyl](4-Phenylbutyl) Carbamoyl}Amino)-3,3-Difluorocyclobutane-1-Carboxylic Acid] | 103 | –
CCOc1cc(C(C)N(CCCCc2ccccc2)C(=O)NC2(C(=O)O)CC(F)(F)C2)cc(OCC)c1C#N (stereo not shown) [Example 1-41] | 6.15 | –
CCOc1cc(C(C)N(CCCCc2ccccc2)C(=O)NC2(C(=O)O)CC(F)(F)C2)cc(OCC)c1Br (stereo not shown) [Example 1-42] | 4.02 | –
CCOc1cc([C@@H](C)N(CCCCc2ccccc2)C(=O)NC2(C(=O)O)CC(F)(F)C2)cc(OCC)c1C1CC1 [Example 1-46, Sodium 1-({[(1R)-1-(4-Cyclopropyl-3,5-Diethoxyphenyl)Ethyl](4-Phenylbutyl) Carbamoyl}Amino)-3,3-Difluorocyclobutane-1-Carboxylate] | 1 | –

SMILES | IC50 [1] [nM] | IC50 [nM]
CCOc1cc(C(C)N(CCCCc2ccccc2)C(=O)NC2(C(=O)O)CC(F)(F)C2)cc(OCC)c1CC (stereo not shown) [Example 1-47] | 2.71 | –
CCOc1cc([C@@H](C)N(CCCCc2ccccc2)C(=O)NC2(C(=O)O)CC(F)(F)C2)cc(OCC)c1CC [Example 1-48] | 2.47 | –
CCOc1cc(C(C)N(CCCCc2ccccc2)C(=O)NC2(C(=O)O)CC(F)(F)C2)cc(OCC)c1C(C)C (stereo not shown) [Example 1-49] | 5.21 | –
CCOc1cc(C(C)N(CCCCc2ccccc2)C(=O)NC2(C(=O)O)CC(F)(F)C2)cc(OCC)c1CO (stereo not shown) [Example 1-50, 1-{[{1-[3,5-Diethoxy-4-(Hydroxymethyl)Phenyl]Ethyl}(4-Phenylbutyl) Carbamoyl]Amino}-3,3-Difluorocyclobutane-1-Carboxylic Acid] | 3.68 | –
CCOc1cc(C(C)N(CCCCc2ccccc2)C(=O)NC2(C(=O)O)CC(F)(F)C2)cc(OCC)c1C(F)F (stereo not shown) [Example 1-51] | 3.52 | –
CCOc1cc(C(C)N(CCCCc2ccccc2)C(=O)NC2(C(=O)O)CC(F)(F)C2)cc(OCC)c1C(O)C(F)(F)F (stereo not shown) [Example 1-52] | 7.96 | –
C=Cc1c(OCC)cc(C(C)N(CCCCc2ccccc2)C(=O)NC2(C(=O)O)CC(F)(F)C2)cc1OCC (stereo not shown) [Example 1-53] | 3 | –
C=C(C)c1c(OCC)cc(C(C)N(CCCCc2ccccc2)C(=O)NC2(C(=O)O)CC(F)(F)C2)cc1OCC (stereo not shown) [Example 1-54] | 3.25 | –
CCOc1cc(C(C)N(CCCCc2ccccc2)C(=O)NC2(C(=O)O)CC(F)(F)C2)cc(OCC)c1OCC (stereo not shown) [Example 1-55] | 7.44 | –
CCOc1cc(C(C)N(CCCCc2ccccc2)C(=O)NC2(C(=O)O)CC(F)(F)C2)cc(OCC)c1C(C)=O (stereo not shown) [Example 1-56] | 33 | –
CCOc1cc(C(C)N(CCCCc2ccccc2)C(=O)NC2(C(=O)O)CC(F)(F)C2)cc(OCC)c1S(C)(=O)=O (stereo not shown) [Example 1-57] | 26.6 | –
CCOc1cc(C(C)N(CCCCc2ccccc2)C(=O)NC2(C(=O)O)CC(F)(F)C2)cc(OCC)c1C(=O)CC (stereo not shown) [Example 1-58] | 4.24 | –
CCOc1cc(C(C)N(CCCCc2ccccc2)C(=O)NC2(C(=O)O)CC(F)(F)C2)cc(OCC)c1C(=O)C(F)(F)F (stereo not shown) [Example 1-59] | 14.9 | –
CCOc1cc(C(C)N(CCCCc2ccccc2)C(=O)NC2(C(=O)O)CC(F)(F)C2)cc(OCC)c1C(=O)OC (stereo not shown) [Example 1-60] | 5.46 | –
CCOc1cc(C(C)N(CCCCc2ccccc2)C(=O)NC2(C(=O)O)CC(F)(F)C2)cc(OCC)c1C(=O)NC (stereo not shown) [Example 1-61] | 103 | –
CCOc1cc(C(C)N(CCCCc2ccccc2)C(=O)NC2(C(=O)O)CC(F)(F)C2)cc(O)c1C(C)=O (stereo not shown) [Example 1-62, 1-({[1-(4-Acetyl-3-Ethoxy-5-Hydroxyphenyl)Ethyl](4-Phenylbutyl) Carbamoyl}Amino)-3,3-Difluorocyclobutane-1-Carboxylic Acid] | 6.76 | –
CCOc1cc(C(C)N(CCCCc2ccccc2)C(=O)NC2(C(=O)O)CC(F)(F)C2)cc(OCC(F)(F)F)c1C (stereo not shown) [Example 1-63] | 10.9 | –
COc1cc(C(C)N(CCCCc2ccccc2)C(=O)NC2(C(=O)O)CC(F)(F)C2)cc(OC)c1C (stereo not shown) [Example 1-66] | – | 3.96
COc1cc([C@@H](C)N(CCCCc2ccccc2)C(=O)NC2(C(=O)O)CC(F)(F)C2)cc(OC)c1C [Example 1-67] | 1.6 | –
CCOc1cc(C(C)N(CCCCc2ccccc2)C(=O)NC2(C(=O)O)CC(F)(F)C2)cc(OC)c1C (stereo not shown) [Example 1-68] | 3.78 | –
CCCOc1cc(C(C)N(CCCCc2ccccc2)C(=O)NC2(C(=O)O)CC(F)(F)C2)cc(OCC)c1C (stereo not shown) [Example 1-69] | 5.04 | –
CCOc1cc(C(C)N(CCCCc2ccccc2)C(=O)NC2(C(=O)O)CC(F)(F)C2)cc(F)c1C(C)=O (stereo not shown) [Example 1-71] | 3.48 | –
CCOc1cc(C(C)N(CCCCc2ccccc2)C(=O)NC2(C(=O)O)CC(F)(F)C2)cc(F)c1C(C)O (stereo not shown) [Example 1-72] | 4.22 | –
Cc1c(OC2CC2)cc(C(C)N(CCCCc2ccccc2)C(=O)NC2(C(=O)O)CC(F)(F)C2)cc1OC1CC1 (stereo not shown) [Example 1-73] | 7.43 | –
CCOc1cc(C(C)N(CCCCc2ccccc2)C(=O)NC2(C(=O)O)CC(F)(F)C2)cc(COC)c1C (stereo not shown) [Example 1-74] | 7.15 | –
CCOc1c(C(C)=O)ccc([C@@H](C)N(CCCCc2ccccc2)C(=O)NC2(C(=O)O)CC(F)(F)C2)c1C [Example 1-75] | 1.24 | –
